Consider one compound from publication PMC8398714, “Synthesis and Evaluation of Biological Activities of Bis(spiropyrazolone)cyclopropanes: A Potential Application against Leishmaniasis” (Molecules, 2021).

SMILES strings stand for the structures.

One test has as its system RKO. Kind of test: MTS cell viability assay on RKO cells. It is filed as cell-based. Particulars: Homo sapiens, 48 h. Here is the method: (§1) Five tumor human cancer cell lines—cerebral astrocytoma (D-384), grade IV prostatic adenocarcinoma (PC-3), mammary adenocarcinoma (MCF-7), human colon carcinoma (RKO) and lung carcinoma (A-549)—along with one immortalized hamster cell line (CHO K-1) were used. The cells PC-3, MCF-7 and RKO were cultured in RPMI-1640, D-384 on DMEM and CHO K-1 on HAM F-12 medium supplemented with 10% fetal bovine serum (FBS, Invitrogen, Karlsruhe, Germany), 1% antibiotic-antimitotic solution (100 units/mL penicillin G, 100 µg/mL streptomycin, and 0.25 µg/mL amphotericin B, Gibco, Grand Island, NY, USA), and 1% L-glutamine (2 mM, Gibco). The cells were incubated at 37 °C in a 5% CO2 atmosphere. The viable cells were counted using the trypan blue exclusion method in a hemocytometer.
(§2) The MTS (5-[3-(carboxymethoxy)phenyl]-3-(4,5-dimethyl-2-thiazolyl)-2-(4-sulfo- phenyl)-2H-tetrazolium inner salt) cell viability assay was used to assess the inhibitory effects of the extracts on the survival of human cancer cell lines. A total of 3–5 × 10^3 cells/well were seeded into 96-well plates and were allowed to adhere for 24 h. […] Each concentration/assay was performed three times. Dimethyl sulfoxide (DMSO) was used as a negative control at a final concentration of 0.1% v/v, and 1 µM Doxorubicin was used as a positive control. The cells were incubated with the treatments for 48 h, after which 20 µL MTS (5 mg/mL, Aqueous One Solution Reagent, Gibco) was added and further incubated for 4 h at 37 °C. The absorbance was measured at 570 nm. The data obtained with cells treated with DMSO were defined to represent 100% viability.
In general terms: Tetrazolium dyes change colour on reduction, which living cells bring about.

Another test relates to PC-3. Kind of test: MTS cell viability assay on PC-3 cells. The note with it: Homo sapiens, 48 h. It is filed as cell-based. Here is the method: as §1, §2
A short description of test [1]: MTS cell viability assay on A-549 cells. The note with it: Homo sapiens; 48 h, 15-150 µM, mean ± SEM of triplicates. In kind it is cell-based. Here is the method:
as §1, §2

Another test relates to A-549. Kind of test: MTS cell viability assay on A-549 cells. Particulars: Homo sapiens, A549; 100 µM, 48 h; Dox 1 µM; mean ± SEM; NA = no activity; read-out: Percentage (%) of inhibition, A-549. It is filed as cell-based. Here is the method: as §1, §2
The subject of another test is MCF-7. Briefly: MTS cell viability assay on MCF-7 cells. In kind it is cell-based. The note with it: Homo sapiens, MCF7; 100 µM, 48 h; Dox 1 µM; mean ± SEM; NA = no activity; read-out: Percentage (%) of inhibition, MCF-7. Here is the method: as §1, §2
In the next test the test system is HeLa. Kind of test: MTS cell viability assay on HeLa cells. It is filed as cell-based. Particulars: Homo sapiens, 100 µM, 48 h, Dox 1 µM, mean ± SEM, NA = no activity, read-out: Percentage (%) of inhibition, HeLa.
A further test has as its system CHO-K1. Briefly: MTS cell viability assay on immortalized CHO-K1 cells. It is filed as cell-based, hamster. The note with it: 100 µM, 48 h, Dox 1 µM, mean ± SEM, NA = no activity, read-out: Percentage (%) of inhibition, CHO-K1. Here is the method:
as §1, §2

The mark [2] stands for this setting: 15-150 µM, mean ± SEM of triplicates.

For orientation: inhibition means the drop in the measured response relative to a control, in per cent. As usually defined, the IC50 is the midpoint of a concentration-inhibition curve. As for `COc1cccc2c1C(=O)c1c(O)c3c(c(O)c1C2=O)C[C@@](O)(C(=O)CO)C[C@@H]3O[C@H]1C[C@H](N)[C@H](O)[C@H](C)O1` [Dox, Doxorubicin, reference compound], the inhibition at 1 µM in the test on RKO (100 µM, Dox 1 µM, mean ± SEM, NA = no activity, read-out: Percentage (%) of inhibition, RKO) is 85.6 ± 1.06%; in the test on PC-3 (100 µM, Dox 1 µM, mean ± SEM, NA = no activity, read-out: Percentage (%) of inhibition, PC-3) it was 88 ± 1.65%; in the test on A-549, 9.16 ± 2.16%; in the test with MCF-7, 46.2 ± 7.77%; with HeLa, 9.18 ± 9.55%; in the test with CHO-K1, 2.62 ± 1.42%. The IC50 in the test on RKO (setting [2]) was 510 ± 10 nM; with PC-3 (setting [2]) it was 650 ± 80 nM; in test [1] it was 1230 ± 100 nM.
